Marks after values point to notes of the source that are not given here.
Tests used:
[1] = tested on: 3T3-L1 adipocytes; experiment: In vitro model for anti-diabetic effect: 24-hour glucose consumption from culture medium of 3T3-L1 adipocytes; assay type: cell-based; settings: starting glucose 300 mg/dL
Protocol: Adipose tissue is one of the major sites of postprandial glucose uptake (Watson et al., 2007). To speed up the screening of novel anti-diabetic candidate materials from natural products, an in vitro model was established by comparing the 24-hour glucose consumption from the culture medium of 3T3-L1 adipocytes.
The same amount (5×10^5 cells) of 3T3-L1 preadipocytes (BCRC #60159; Bioresource Collection and Research Center, Taiwan) was seeded and cultured in normal glucose (100 mg/dL) DMEM supplemented with 10% FBS, 100 U/mL of penicillin, and 100 μg/mL of streptomycin in a humidified atmosphere of 95% air and 5% CO2 at 37° C. When the cell density reached 100% confluence, 3T3-L1 preadipocytes were induced to differentiate by treating the culture with 450 mg/dL D-glucose, 0.32 μM insulin, 0.5 mM 3-isobutyl-1-methylxanthine and 1 μM dexamethasone for two days. Then, the culture medium of the differentiated adipocytes was changed to DMEM containing 300 mg/dL D-glucose with or without the administration of TSL extracts. After 24 hours, the anti-diabetic activity was determined by measuring the medium glucose concentration using a Roche Cobas Integra 400 Chemistry Analyzer (Roche Diagnostics, Taipei, Taiwan). The coefficient of variation (CV) of the analyzer was 0.62-0.92% within-run and 1.1-1.2% between days. To confirm whether the in vitro model was sufficient to measure the glucose-lowering effect, insulin and rosiglitazone were used as positive controls.
The methods of in vitro model for determination of anti-diabetic effect are the same as the contents described in EXAMPLE 3. To obtain the high to mid-high polar components of TSL, three different extraction methods were used to produce the following extracts, which were previously reported (Liao et al., 2007; Hsieh et al., 2005; Yang et al., 2003). TSLs were (i) extracted by reverse-osmosis of water (1:4 w/v) by boiling for 30 min and then cooling down without further boiling for two hours at room temperature (Liao et al., 2007); (ii) extracted by soaking in 100° C. boiled water (1:10 w/v) three times, each time for 30 min (Hsieh et al., 2005); and (iii) extracted by boiling in 50% v/v alcohol/water for three hours (Yang et al., 2003). Next, the leaves were removed and the remaining liquids were filtered through filter paper (Advantec, Tokyo, Japan). Afterward, the filtrated solutions were concentrated using an evaporator (rotary vacuum evaporator, vv2000; Heidolph, Schwabach, Germany) under reduced pressure and three crude extracts were obtained, which were named TS-WB (i), TS-WS (ii), and TS-E (iii); the yield of each extract was 6.03%, 5.13%, and 8.36%, respectively.

[2] = tested on: type 2 diabetic mouse model; experiment: Anti-diabetic effect in vivo, type 2 diabetic mouse model (high-fat diet plus STZ injection); parameters: species or system C57BL/6J mice; settings: DM + rosiglitazone 150 μg/kg/day, mean ± SD
Protocol: Eight-week-old male C57BL/6J mice were obtained from BioLASCO Technology (Charles River Taiwan Ltd.). All of the mice received standard animal care under supervision of the Institutional Animal Care and Use Committee of Kaohsiung Medical University, Taiwan. The mice were caged in an air-conditioned animal facility at 23° C. on a 12-h light/dark cycle and were maintained with free access to water and food. Animals were fed either a normal chow diet consisting (as a percentage of total kcal) of 11% fat, 65% carbohydrate, and 24% protein (Maintenance diet 1320, Altromin Spezialfutter GmbH & Co. KG, Germany) or a high-fat diet consisting of 45% fat, 35% carbohydrate, and 20% protein (D12451, Research Diets, Inc., New Brunswick, N.J., USA). After two weeks on either diet, mice were divided into four groups: (i) control (n=7); (ii) high-fat-diet mice with STZ injection (DM; n=5); (iii) high-fat-diet mice with STZ injection plus TS-SCF treatment (DM+TS-SCF; n=6); and (iv) high-fat-diet mice with STZ injection plus rosiglitazone treatment (DM+Rosig; n=4). The mice in groups ii-iv were injected with STZ (45 mg/kg), and both STZ-injected and non-injected animals were kept on their original diets (chow or high-fat) for the duration of the study. TS-SCF (150 mg/kg/day) and rosiglitazone (150 μg/kg/day) treatments via gastric gavage were begun two days after the STZ injection.
Throughout the experiment, body weight and blood glucose from the tail tip were monitored weekly. Blood glucose was detected by the ACCU-CHEK blood glucose meter (Roche Diagnostics, Taipei, Taiwan). Animals were sacrificed after eight weeks of STZ injection and were euthanized by intraperitoneal injection with the anesthetic Zoletil (10 mg/kg) (Virbac, Carros, France). Blood samples were collected from the heart at the time of sacrifice for the measurement of biochemistry data using a Roche Cobas Integra 400 Chemistry Analyzer (Roche Diagnostics, Taipei, Taiwan).
Insulin from plasma were detected by ELISA kits (Crystal Chem, Inc. Downers Grove, USA). The homeostasis model assessment of insulin resistance (HOMA-IR) was calculated using the following formula: fasting blood glucose (mg/dL)×fasting insulin (μU/mL)/405.

[3] = insulin 3.2×10^−7 to 3.2×10^−5 M

Row | Compound | decrease of the glucose concentration in the media ([1]; rosiglitazone 12.5 to 50 μg/mL) | percentage of glucose consumption ([1]; rosiglitazone 12.5 to 50 μg/mL) | Fasting glucose ([2]; at sacrifice eight weeks after STZ) | Body weight gain [2] | HDL-C [2] | HOMA-IR [2] | Insulin (fasting plasma) [2] | LDL-C [2] | T-CHO (total cholesterol) [2] | Triglycerol (plasma) [2] | ALT ([2]; plasma) | Creatinine ([2]; plasma) | decrease of the glucose concentration in the media [1, 3] | percentage of glucose consumption [1, 3]
1 | CN(CCOc1ccc(CC2SC(=O)NC2=O)cc1)c1ccccn1 (centres unmarked) [rosiglitazone] | 50 to 80 mg/dL | 16-27% | 205.00 ± 84.87^b mg/dL | 8.10 ± 1.95 g | 126.03 ± 32.17 mg/dL | 14.29 ± 4.60^b | 0.98 ± 0.77 ng/mL | 9.81 ± 8.29 mg/dL | 137.65 ± 32.62 mg/dL | 64.94 ± 4.82^d mg/dL | 62.00 ± 27.00 U/L | 0.54 ± 0.18^e mg/dL |  | 
2 | insulin |  |  |  |  |  |  |  |  |  |  |  |  | 46 to 57 mg/dL | 15-18%
